From PubChem BioAssay (NCI)
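How tested: cells in 96-well plates exposed to compound for 48 hours at five concentrations. GI50 marks 50% less growth. The concentration for full growth arrest is given as TGI.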

Assays:
Experiment in all cases: inhibition of tumour cell growth, NCI panel, 48 h
[1] = test system: SNB-75 CNS
[2] = test system: ACHN renal
[3] = test system: SNB-19 CNS
[4] = test system: NCI-H23 lung
[5] = test system: UACC-257 melanoma
[6] = test system: DU-145 prostate
[7] = test system: OVCAR-3 ovarian
[8] = test system: SF-268 CNS
[9] = test system: HCT-116 colon
[10] = test system: SK-MEL-2 melanoma
[11] = test system: HCT-15 colon
[12] = test system: UO-31 renal
[13] = test system: SK-MEL-28 melanoma
[14] = test system: MDA-MB-468 breast
[15] = test system: SK-OV-3 ovarian
[16] = test system: CAKI-1 renal
[17] = test system: LOX IMVI melanoma
[18] = test system: OVCAR-4 ovarian
[19] = test system: BT-549 breast
[20] = test system: MDA-MB-231 breast
[21] = test system: SW-620 colon
[22] = test system: HOP-62 NSCLC
[23] = test system: MDA-MB-435
[24] = test system: RXF 393 renal
[25] = test system: NCI/ADR-RES ovarian
[26] = test system: COLO 205 colon
[27] = test system: RPMI-8226 leukemia
[28] = test system: PC-3 prostate
[29] = test system: HOP-92 NSCLC
[30] = test system: T-47D breast
[31] = test system: U251 CNS
[32] = test system: OVCAR-5 ovarian
[33] = test system: NCI-H522 lung
[34] = test system: TK-10 renal
[35] = test system: A498 renal
[36] = test system: NCI-H226 lung
[37] = test system: NCI-H460 lung
[38] = test system: SF-295 CNS
[39] = test system: HT29 colon
[40] = test system: HCC-2998 colon
[41] = test system: MOLT-4 leukemia
[42] = test system: HS 578T breast
[43] = test system: MALME-3M melanoma
[44] = test system: SR leukemia
[45] = test system: SF-539 CNS
[46] = test system: SN12C renal
[47] = test system: A549 NSCLC
[48] = test system: 786-0 renal
[49] = test system: KM12 colon
[50] = test system: M14 melanoma
[51] = test system: UACC-62 melanoma
[52] = test system: K-562 leukemia
[53] = test system: OVCAR-8 ovarian
[54] = test system: HL-60(TB) leukemia
[55] = test system: MCF7 breast
[56] = test system: SK-MEL-5 melanoma
[57] = test system: IGROV1 ovarian
[58] = test system: EKVX NSCLC
[59] = test system: CCRF-CEM leukemia

## Cc1ccc(-c2ccc(SCC(=O)Nc3ccc(S(N)(=O)=O)cc3Br)nn2)cc1
[1]
  GI50: 13.6 µM
  TGI: 37.1 µM
[2]
  GI50: 12 µM
  TGI: 24.4 µM
[3]
  GI50: 11.3 µM
  TGI: 23.3 µM
[4]
  GI50: 9.73 µM
  TGI: 21.4 µM
[5]
  GI50: 22.7 µM
  TGI: 64.9 µM
[6]
  GI50: 13.3 µM
  TGI: 32.1 µM
[7]
  GI50: 16.9 µM
  TGI: 32.4 µM
[8]
  GI50: 18.4 µM
  TGI: 48.9 µM
[9]
  GI50: 3.67 µM
  TGI: 17.2 µM
[10]
  GI50: 16.4 µM
  TGI: 35.3 µM
[11]
  GI50: 11.3 µM
  TGI: 23.4 µM
[12]
  GI50: 14.7 µM
  TGI: 28.6 µM
[13]
  GI50: 13.4 µM
  TGI: 27 µM
[14]
  GI50: 15.3 µM
  TGI: 36.4 µM
[15]
  GI50: 15.1 µM
  TGI: 29.3 µM
[16]
  GI50: 12.3 µM
  TGI: 28.5 µM
[17]
  GI50: 10.4 µM
  TGI: 25.5 µM
[18]
  GI50: 14.1 µM
  TGI: 35 µM
[19]
  GI50: 15.7 µM
  TGI: 44.2 µM
[20]
  GI50: 4.19 µM
  TGI: 15.5 µM
[21]
  GI50: 27.2 µM
  TGI: > 100 µM
[22]
  GI50: 6.99 µM
  TGI: 24.2 µM
[23]
  GI50: 25.4 µM
  TGI: > 100 µM
[24]
  GI50: 3.96 µM
  TGI: 20.5 µM
[25]
  GI50: 9.62 µM
  TGI: > 100 µM
[26]
  GI50: 17.4 µM
  TGI: 41.2 µM
[27]
  GI50: > 100 µM
  TGI: > 100 µM
[28]
  GI50: 5.64 µM
  TGI: 22.5 µM
[29]
  GI50: 2.97 µM
  TGI: 13.5 µM
[30]
  GI50: 10.6 µM
  TGI: 34.3 µM
[31]
  GI50: 6.17 µM
  TGI: 24 µM
[32]
  GI50: 15 µM
  TGI: 32.4 µM
[33]
  GI50: 10.9 µM
  TGI: 25.4 µM
[34]
  GI50: 17.6 µM
  TGI: 39.5 µM
[35]
  GI50: 19.3 µM
  TGI: 34.4 µM
[36]
  GI50: 7.32 µM
  TGI: 24.7 µM
[37]
  GI50: 10.3 µM
  TGI: 29 µM
[38]
  GI50: 10.5 µM
  TGI: 22.3 µM
[39]
  GI50: 7.6 µM
  TGI: 68.8 µM
[40]
  GI50: 11.5 µM
  TGI: 28.1 µM
[41]
  GI50: > 100 µM
  TGI: > 100 µM
[42]
  GI50: 13.1 µM
  TGI: 45.3 µM
[43]
  GI50: 13.7 µM
  TGI: 28.8 µM
[44]
  GI50: 60.4 µM
  TGI: > 100 µM
[45]
  GI50: 10.4 µM
  TGI: 22.2 µM
[46]
  GI50: 23.8 µM
  TGI: 60 µM
[47]
  GI50: 15 µM
  TGI: 30.9 µM
[48]
  GI50: 16.4 µM
  TGI: 47 µM
[49]
  GI50: 28.3 µM
  TGI: > 100 µM
[50]
  GI50: 30.5 µM
  TGI: > 100 µM
[51]
  GI50: 13.2 µM
  TGI: 26.2 µM
[52]
  GI50: 36.3 µM
  TGI: > 100 µM
[53]
  GI50: 13.3 µM
  TGI: 29.6 µM
[54]
  GI50: > 100 µM
  TGI: > 100 µM
[55]
  GI50: 15.4 µM
  TGI: 37.1 µM
[56]
  GI50: 13.1 µM
  TGI: 26.5 µM
[57]
  GI50: 15.9 µM
  TGI: 31.3 µM
[58]
  GI50: 15.5 µM
  TGI: 31.3 µM
[59]
  GI50: > 100 µM
  TGI: > 100 µM
